Source: patent US7244744B2, “Piperidines” (Icagen, Inc., priority 2001, dated 2007)

What follows are molecules tested against T1, PN3 (Homo sapiens, UniProt Q9Y5Y9) (assay: 14C Guanidinium Ion Influx Binding Assay (flux assay)). Details: activity towards PN3, PN3 stably expressed in a host cell line, deltamethrine 10 μM.
T1 construct: expressed in transfected cells
Assay type: cell-based
Procedure: 1.1 ^14C Guanidinium Ion Influx Binding Assay
PN3 stably expressed in a host cell line were maintained in DMEM with 5% fetal bovine serum and 300 μg/ml G-418. The cells were subcultured and grown to confluence in 96-well plates 24-48 h before each experiment. After the growth medium was removed, the cells were washed with warm buffer (25 mM Hepes-Tris, 135 mM choline chloride, 5.4 mM potassium chloride, 0.98 mM magnesium sulfate, 5.5 mM glucose, and 1 mg/ml BSA, pH 7.4) and incubated in buffer on a 36° C. slide wanner for approximately 10 minutes. Various concentrations of the test compounds or standard sodium channel blockers (10 μM) and then deltamethrine (10 μM) were added to each well. After the cells were exposed to deltamethrine for 5 minutes, 5 μM of ^14C-guanidinium was added, incubated with the radioligand (30-60 min), washed with ice-cold buffer, and dissolved in 0.1N sodium hydroxide. The radioactivity and the protein concentration of each cell lysate were determined by liquid scintillation counting and the protein assay using Pierce BCA reagent.

T1 sequence (Q9Y5Y9 whole entry, species assumed): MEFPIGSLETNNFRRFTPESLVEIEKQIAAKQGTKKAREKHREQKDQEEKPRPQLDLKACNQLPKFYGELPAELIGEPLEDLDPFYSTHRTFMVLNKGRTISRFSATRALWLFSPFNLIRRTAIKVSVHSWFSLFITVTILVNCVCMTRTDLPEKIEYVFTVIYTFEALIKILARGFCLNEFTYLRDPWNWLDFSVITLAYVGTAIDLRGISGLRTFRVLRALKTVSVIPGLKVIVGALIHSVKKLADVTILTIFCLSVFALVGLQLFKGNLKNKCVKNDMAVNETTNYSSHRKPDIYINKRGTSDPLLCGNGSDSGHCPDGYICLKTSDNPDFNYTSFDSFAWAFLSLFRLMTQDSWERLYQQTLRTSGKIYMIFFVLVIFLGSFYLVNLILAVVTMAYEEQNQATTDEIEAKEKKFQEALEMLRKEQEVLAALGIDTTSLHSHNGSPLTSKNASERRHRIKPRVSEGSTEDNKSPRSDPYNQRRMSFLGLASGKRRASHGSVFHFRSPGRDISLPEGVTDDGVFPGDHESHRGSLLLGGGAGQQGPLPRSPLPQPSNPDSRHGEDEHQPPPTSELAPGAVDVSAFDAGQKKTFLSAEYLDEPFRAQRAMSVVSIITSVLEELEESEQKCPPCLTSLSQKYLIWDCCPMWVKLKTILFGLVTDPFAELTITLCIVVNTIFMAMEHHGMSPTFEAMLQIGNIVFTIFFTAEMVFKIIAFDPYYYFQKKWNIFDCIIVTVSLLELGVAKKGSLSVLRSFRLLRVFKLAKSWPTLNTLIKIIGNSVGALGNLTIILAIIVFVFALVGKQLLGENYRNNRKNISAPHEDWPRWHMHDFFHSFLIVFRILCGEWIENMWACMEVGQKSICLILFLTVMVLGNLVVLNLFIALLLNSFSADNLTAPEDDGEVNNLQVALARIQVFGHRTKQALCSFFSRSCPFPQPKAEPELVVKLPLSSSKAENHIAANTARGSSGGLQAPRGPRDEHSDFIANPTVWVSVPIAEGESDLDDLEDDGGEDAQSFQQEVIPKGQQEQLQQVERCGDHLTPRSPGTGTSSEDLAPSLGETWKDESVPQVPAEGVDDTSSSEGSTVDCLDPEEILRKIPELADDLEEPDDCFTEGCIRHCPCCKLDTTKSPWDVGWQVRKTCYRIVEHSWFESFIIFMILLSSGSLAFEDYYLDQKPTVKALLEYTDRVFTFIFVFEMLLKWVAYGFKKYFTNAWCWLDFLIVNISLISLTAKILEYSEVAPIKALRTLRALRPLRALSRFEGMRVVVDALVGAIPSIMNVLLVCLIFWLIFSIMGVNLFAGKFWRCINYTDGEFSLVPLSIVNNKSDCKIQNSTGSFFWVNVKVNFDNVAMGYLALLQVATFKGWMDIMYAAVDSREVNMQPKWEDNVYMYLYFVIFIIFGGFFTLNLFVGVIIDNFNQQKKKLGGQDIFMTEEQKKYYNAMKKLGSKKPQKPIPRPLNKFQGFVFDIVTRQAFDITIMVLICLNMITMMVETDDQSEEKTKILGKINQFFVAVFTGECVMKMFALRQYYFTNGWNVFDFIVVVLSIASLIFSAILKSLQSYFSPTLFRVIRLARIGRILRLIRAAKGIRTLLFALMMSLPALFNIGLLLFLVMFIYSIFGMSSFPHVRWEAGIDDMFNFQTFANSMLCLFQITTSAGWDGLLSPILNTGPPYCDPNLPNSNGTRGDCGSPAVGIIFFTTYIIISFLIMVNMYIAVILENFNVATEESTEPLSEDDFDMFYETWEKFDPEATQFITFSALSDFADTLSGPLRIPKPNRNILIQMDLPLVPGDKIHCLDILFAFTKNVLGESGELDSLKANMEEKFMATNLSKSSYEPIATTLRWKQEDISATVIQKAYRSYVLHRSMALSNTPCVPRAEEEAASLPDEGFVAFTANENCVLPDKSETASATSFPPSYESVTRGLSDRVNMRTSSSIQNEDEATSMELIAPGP

IC50 [µM] | SMILES
0.1 to 4 | CCCCc1ccc(C(=O)N2CCC(n3c(=O)[nH]c4cc(F)ccc43)CC2)cc1 [Compound 160, 1-[1-(4-Butyl-benzoyl)-piperidin-4-yl]-5-fluoro-1,3-dihydro-benzoimidazol-2-one]
0.1 to 4 | CCCCc1ccc(C(=O)N2CC=C(n3c(=O)n(Cc4ccccc4)c4ccccc43)CC2)cc1 [Compound 208, 1-Benzyl-3-[1-(4-butyl-benzoyl)-1,2,3,6-tetrahydro-pyridin-4-yl]-1,3-dihydro-benzoimidazol-2-one]
0.1 to 4 | CCCCc1ccc(C(=O)N2CCC(n3c(NCc4ccccc4)nc4ccccc43)CC2)cc1 [Compound 300, [4-(2-Benzylamino-benzoimidazol-1-yl)-piperidin-1-yl]-(4-butyl-phenyl)-methanone]
0.1 to 4 | CCCCc1ccc(C(=O)N2CC=C(n3c(=O)[nH]c4ccccc43)CC2)cc1 [Compound 181, 1-[1-(4-Butyl-benzoyl)-1,2,3,6-tetrahydro-pyridin-4-yl]-1,3-dihydro-benzoimidazol-2-one]
4.1 to 10 | CCCCc1ccc(C(=O)N2CCC(n3c(NCc4ccccn4)nc4ccccc43)CC2)cc1 [Compound 185, (4-Butyl-phenyl)-(4-{2-[(pyridin-2-ylmethyl)-amino]-benzoimidazol-1-yl}-piperidin-1-yl)-methanone]

Second part, the molecule before the results:

SMILES | IC50 [µM]
CCCCc1ccc(C(=O)N2CCC(n3c(C)nc4ccccc43)CC2)cc1 [Compound 203, (4-Butyl-phenyl)-[4-(2-methyl-benzoimidazol-1-yl)-piperidin-1-yl]-methanone] | 4.1 to 10
CCCCc1ccc(C(=O)N2CCC(n3c(=O)n(C)c4ccccc43)CC2)cc1 [Compound 150, 1-[1-(4-Butyl-benzoyl)-piperidin-4-yl]-3-methyl-1,3-dihydro-benzoimidazol-2-one] | 0.1 to 4
CCCCCCNc1nc2ccccc2n1C1CCN(C(=O)c2ccc(CCCC)cc2)CC1 [Compound 188, (4-Butyl-phenyl)-[4-(2-hexylamino-benzoimidazol-1-yl)-piperidin-1-yl]-methanone] | 0.1 to 4
O=c1[nH]c2ccccc2n1C1CCN(S(=O)(=O)c2ccc3ccccc3c2)CC1 [Compound 304, 1-[1-(Naphthalene-2-sulfonyl)-piperidin-4-yl]-1,3-dihydro-benzoimidazol-2-one] | 4.1 to 10
CCCCc1ccc(C(=O)N2CCC(n3c(=O)[nH]c4ccccc43)CC2)cc1 [Compound 34, 1-[1-(4-Butyl-benzoyl)-piperidin-4-yl]-1,3-dihydro-benzoimidazol-2-one] | 0.1 to 4
CCCCc1ccc(C(=O)N2CCC(n3c(=O)n(Cc4ccncc4)c4ccccc43)CC2)cc1 [Compound 198, 1-[1-(4-Butyl-benzoyl)-piperidin-4-yl]-3-pyridin-4-ylmethyl-1,3-dihydro-benzoimidazol-2-one] | 0.1 to 4
CCCCc1ccc(C(=O)N2CCC(n3c(=O)[nH]c4cccnc43)CC2)cc1 [Compound 200, 3-[1-(4-Butyl-benzoyl)-piperidin-4-yl]-1,3-dihydro-imidazo[4,5-b]pyridin-2-one] | 0.1 to 4
CCCCc1ccc(C(=O)N2CC=C(n3c(=O)n(C)c4ccccc43)CC2)cc1 [Compound 206, 1-[1-(4-Butyl-benzoyl)-1,2,3,6-tetrahydro-pyridin-4-yl]-3-methyl-1,3-dihydro-benzoimidazol-2-one] | 0.1 to 4
